Test results as given in patent publication US10179771B2 (GALAPAGOS NV, priority 2014, dated 2019).

Experiments:
[1] = molecular target: T1, Recombinant human TYK2 catalytic domain (Homo sapiens, UniProt P29597); assay: TYK2 inhibition assay; assay type: biochemical; settings: Illustrative Compounds of the invention (Table XI)
T1 construct: Recombinant human TYK2 catalytic domain (amino acids 871-1187; catalog number 08-147); purchased Carna biosciences 08-147
T1 sequence (P29597 871-1187): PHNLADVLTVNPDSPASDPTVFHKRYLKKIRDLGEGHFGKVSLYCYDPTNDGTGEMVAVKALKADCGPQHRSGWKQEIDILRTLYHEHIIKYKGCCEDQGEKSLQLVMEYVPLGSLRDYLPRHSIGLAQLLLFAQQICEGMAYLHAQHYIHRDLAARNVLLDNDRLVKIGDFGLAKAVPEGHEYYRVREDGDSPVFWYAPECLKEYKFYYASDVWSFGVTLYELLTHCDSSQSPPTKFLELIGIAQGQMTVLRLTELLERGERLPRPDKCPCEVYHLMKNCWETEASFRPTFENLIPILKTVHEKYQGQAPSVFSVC
Procedure: Recombinant human TYK2 catalytic domain (amino acids 871-1187; catalog number 08-147) was purchased from Carna biosciences. 5 ng of TYK2 was incubated with 12.5 μg polyGT substrate (Sigma catalog number P0275) in kinase reaction buffer (25 mM Hepes pH 7.2, 50 mM NaCl, 0.5 mM EDTA, 1 mM DTT, 5 mM MnCl2, 10 mM MgCl2, 0.1% Brij-35, 0.1 μM non-radioactive ATP, 0.125 μCi ^33P-gamma-ATP (GE Healthcare, catalog number AH9968) final concentrations) with or without 5 μL containing test compound or vehicle (DMSO, 1% final concentration), in a total volume of 25 μL, in a polypropylene 96-well plate (Greiner, V-bottom). After 90 min at 30° C., reactions were stopped by adding 25 μL/well of 150 mM phosphoric acid. All of the terminated kinase reaction was transferred to prewashed (75 mM phosphoric acid) 96 well filter plates (Perkin Elmer catalog number 6005177) using a cell harvester (Perkin Elmer). Plates were washed 6 times with 300 μL per well of a 75 mM phosphoric acid solution and the bottom of the plates was sealed. 40 μL/well of Microscint-20 was added, the top of the plates was sealed and readout was performed using the Topcount (Perkin Elmer). Kinase activity was calculated by subtracting counts per min (cpm) obtained in the presence of a positive control inhibitor (10 μM staurosporine) from cpm obtained in the presence of vehicle. The ability of a test compound to inhibit this activity was determined as: Percentage inhibition=((cpm determined for sample with test compound present−cpm determined for sample with positive control inhibitor) divided by (cpm determined in the presence of vehicle−cpm determined for sample with positive control inhibitor))*100.
(§1) Dose dilution series were prepared for the compounds enabling the testing of dose-response effects in the TYK2 assay and the calculation of the IC50 for each compound. Each compound was routinely tested at concentration of 20 μM followed by a 1/3 serial dilution, 8 points (20 μM-6.67 μM-2.22 μM-740 nM-247 nM-82 nM-27 nM-9 nM) in a final concentration of 1% DMSO. When potency of compound series increased, more dilutions were prepared and/or the top concentration was lowered (e.g. 5 μM, 1 μM).

[2] = molecular target: T2, Recombinant human JAK3 catalytic domain (Homo sapiens, UniProt P52333); assay: JAK3 inhibition assay; assay type: biochemical; settings: Illustrative Compounds of the invention (Table IX)
T2 construct: Recombinant human JAK3 catalytic domain (amino acids 781-1124; catalog number PV3855); purchased Invitrogen PV3855
Procedure: Recombinant human JAK3 catalytic domain (amino acids 781-1124; catalog number PV3855) was purchased from Invitrogen. 0.5 ng JAK3 protein was incubated with 2.5 μg polyGT substrate (Sigma catalog number P0275) in kinase reaction buffer (25 mM Tris pH 7.5, 0.5 mM EGTA, 10 mM MgCl2, 2.5 mM DTT, 0.5 mM Na3VO4, 5 mM b-glycerolphosphate, 0.01% Triton X-100, 1 μM non-radioactive ATP, […] ^33P-gamma-ATP (GE Healthcare, catalog number AH9968) final concentrations) with or without 5 μL containing test compound or vehicle (DMSO, 1% final concentration), in a total volume of 25 μL, in a polypropylene 96-well plate (Greiner, V-bottom). After 45 min at 30° C., reactions were stopped by adding 25 μL/well of 150 mM phosphoric acid. All of the terminated kinase reaction was transferred to prewashed (75 mM phosphoric acid) 96 well filter plates (Perkin Elmer catalog number 6005177) using a cell harvester (Perkin Elmer). Plates were washed 6 times with 300 μL per well of a 75 mM phosphoric acid solution and the bottom of the plates was sealed. 40 μL/well of Microscint-20 was added, the top of the plates was sealed and readout was performed using the Topcount (Perkin Elmer). Kinase activity was calculated by subtracting counts per min (cpm) obtained in the presence of a positive control inhibitor (10 μM staurosporine) from cpm obtained in the presence of vehicle. The ability of a test compound to inhibit this activity was determined as:
[formula] • RFU test compound=RFU determined for sample with test compound present • RFU control=RFU determined for sample with positive control inhibitor • RFU vehicle=RFU determined in the presence of vehicle
as §1, with “JAK3” for “TYK2”, “1/5” for “1/3”, “10” for “8”, “points” for “points (20 μM-6.67 μM-2.22 μM-740 nM-247 nM-82 nM-27 nM-9 nM)”

T2 sequence (P52333 781-1124): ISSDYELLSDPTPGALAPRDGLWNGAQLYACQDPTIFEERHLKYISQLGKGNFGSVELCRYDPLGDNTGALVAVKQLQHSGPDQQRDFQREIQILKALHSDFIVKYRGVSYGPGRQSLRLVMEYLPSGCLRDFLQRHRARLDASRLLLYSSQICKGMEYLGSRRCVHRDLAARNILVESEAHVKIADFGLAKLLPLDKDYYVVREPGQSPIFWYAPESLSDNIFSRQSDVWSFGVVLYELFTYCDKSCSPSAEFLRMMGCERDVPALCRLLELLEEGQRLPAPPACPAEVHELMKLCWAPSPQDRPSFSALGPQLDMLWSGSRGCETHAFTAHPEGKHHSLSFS

IC50 [1] | IC50 [2] | SMILES
0.05 to 0.1 µM | > 0.5 µM | Cc1cc(C(N)=O)ncc1Oc1cc(NC(=O)[C@H]2C[C@H]2F)c2ncn(C)c2c1 [Cpd 32, 5-[7-[[(1R,2R)-2-fluorocyclopropanecarbonyl]amino]-3-methyl-benzimidazol-5-yl]oxy-4-methyl-pyridine-2-carboxamide]
0.1 to 0.5 µM | > 0.5 µM | CN(c1cc(NC(=O)[C@H]2C[C@H]2F)c2ncn(C)c2c1)c1ccc(S(C)(=O)=O)cc1F [Cpd 17, (1R,2R)-2-fluoro-N-[6-(2-fluoro-N-methyl-4-methylsulfonyl-anilino)-1-methyl-benzimidazol-4-yl]cyclopropanecarboxamide]
0.0001 to 0.05 µM | 0.05 to 0.1 µM | CCc1cc(C#N)cc(F)c1N(C)c1cc(NC(=O)OC)c2ncn(C)c2c1 [Cpd 5, methyl 6-((4-cyano-2-ethyl-6-fluorophenyl)(methyl)amino)-1-methyl-1H-benzo[d]imidazol-4-ylcarbamate]
0.0001 to 0.05 µM | 0.1 to 0.5 µM | CCc1cc(C(N)=O)ncc1N(C)c1cc(NC(=O)[C@H]2C[C@H]2F)c2ncn(C)c2c1 [Cpd 25, 4-ethyl-5-((4-((1R,2R)-2-fluorocyclopropanecarboxamido)-1-methyl-1H-benzo[d]imidazol-6-yl)(methyl)amino)picolinamide]
0.1 to 0.5 µM | > 0.5 µM | Cc1cc(C#N)ncc1Oc1cc(NC(=O)NC(C)C)c2ncn(C)c2c1 [Cpd 38, 1-[6-[(6-cyano-4-methyl-3-pyridyl)oxy]-1-methyl-benzimidazol-4-yl]-3-isopropyl-urea]
> 0.5 µM | > 0.5 µM | CNc1cc(Oc2cnc(C#N)cc2C)cc2c1ncn2C [Cpd 34, 4-methyl-5-[3-methyl-7-(methylamino)benzimidazol-5-yl]oxy-pyridine-2-carbonitrile]
0.0001 to 0.05 µM | 0.0001 to 0.05 µM | CCc1cc(C#N)cc(F)c1N(C)c1cc(NC(=O)C2CC2)c2ncn(C)c2c1 [Cpd 3, N-(6-((4-cyano-2-ethyl-6-fluorophenyl)(methyl)amino)-1-methyl-1H-benzo[d]imidazol-4-yl)cyclopropanecarboxamide]
0.1 to 0.5 µM | > 0.5 µM | CCc1cc(S(C)(=O)=O)ncc1Oc1cc(NC(=O)C2CC2)c2ncn(C)c2c1 [Cpd 29, N-[6-[(4-ethyl-6-methylsulfonyl-3-pyridyl)oxy]-1-methyl-benzimidazol-4-yl]cyclopropanecarboxamide]
0.0001 to 0.05 µM | 0.0001 to 0.05 µM | CCc1cc(C#N)cc(F)c1N(C)c1cc(NC(=O)[C@@H]2C[C@@H]2F)c2ncn(C)c2c1 (racemic) [Cpd 7, N-(6-((4-cyano-2-ethyl-6-fluorophenyl)(methyl)amino)-1-methyl-1H-benzo[d]imidazol-4-yl)-2-fluorocyclopropanecarboxamide (1S,2S)/(1R,2R) racemic mixture]
0.0001 to 0.05 µM | > 0.5 µM | CN(c1cc(NC(=O)[C@H]2C[C@H]2F)c2ncn(C)c2c1)c1ccc(C#N)cc1F [Cpd 15, (1R,2R)-N-[6-(4-cyano-2-fluoro-N-methyl-anilino)-1-methyl-benzimidazol-4-yl]-2-fluoro-cyclopropanecarboxamide]
> 0.5 µM | > 0.5 µM | Cc1cc(C#N)ncc1Oc1cc(N(C)C)c2ncn(C)c2c1 [Cpd 35, 5-[7-(dimethylamino)-3-methyl-benzimidazol-5-yl]oxy-4-methyl-pyridine-2-carbonitrile]
0.0001 to 0.05 µM | > 0.5 µM | Cc1cc(C#N)ncc1Oc1cc(NC(=O)C2CC2)c2ncn(C)c2c1 [Cpd 23, N-[6-[(6-cyano-4-methyl-3-pyridyl)oxy]-1-methyl-benzimidazol-4-yl]cyclopropanecarboxamide]
0.0001 to 0.05 µM | > 0.5 µM | CN(c1cc(NC(=O)[C@H]2C[C@H]2F)c2ncn(C)c2c1)c1ccc(F)nc1F [Cpd 13, (1R,2R)-N-[6-[(2,6-difluoro-3-pyridyl)-methyl-amino]-1-methyl-benzimidazol-4-yl]-2-fluoro-cyclopropanecarboxamide]
0.0001 to 0.05 µM | 0.1 to 0.5 µM | Cc1cnc(C#N)c(F)c1N(C)c1cc(NC(=O)[C@H]2C[C@H]2F)c2ncn(C)c2c1 [Cpd 22, (1R,2R)-N-[6-[(2-cyano-3-fluoro-5-methyl-4-pyridyl)-methyl-amino]-1-methyl-benzimidazol-4-yl]-2-fluoro-cyclopropanecarboxamide]
0.0001 to 0.05 µM | 0.05 to 0.1 µM | Cc1cc(S(C)(=O)=O)cc(F)c1N(C)c1cc(NC(=O)C2CC2)c2ncn(C)c2c1 [Cpd 19, N-[6-(2-fluoro-N,6-dimethyl-4-methylsulfonyl-anilino)-1-methyl-benzimidazol-4-yl]cyclopropanecarboxamide]
0.0001 to 0.05 µM | 0.05 to 0.1 µM | CCc1cc(C#N)ncc1N(C)c1cc(NC(=O)C2CC2)c2ncn(C)c2c1 [Cpd 1, N-(6-((6-cyano-4-ethylpyridin-3-yl)(methyl)amino)-1-methyl-1H-benzo[d]imidazol-4-yl)cyclopropanecarboxamide]
